Test results taken from patent publication US9695155B2, “Herbicidal substituted pyrimidinyloxy benzene compounds” (E. I. DU PONT DE NEMOURS AND COMPANY, priority 2013, dated 2017).

Key:
[1] = system: barnyardgrass; assay: Test A preemergence; format: in vivo, Echinochloa crus-galli
Outline: (§1)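 Pre- and postemergence greenhouse screen. Soil: loam + sand. Spray carrier: solvent mixture, non-phytotoxic, with surfactant. Post timing at 1–2 leaves, height 2–10 cm. Readout: visual injury on a 0–100 scale roughly 10 days after application, untreated plants as reference.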

[2] = system: giant foxtail; assay: Test A preemergence; format: in vivo, Setaria faberii
Outline: as §1

[3] = system: rice; assay: Test B flooded paddy test; format: in vivo, Oryza sativa; conditions: Flood, 250 g ai/ha; 0 to 100 scale where 0 is no effect and 100 is complete control
Outline: (§2)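 Plants were grown to the 2-leaf stage, then pots were flooded to 3 cm above the soil and compounds were applied directly into the paddy water. That depth was held throughout, and after 13 to 15 days in the greenhouse injury was rated visually against controls on a 0–100 scale (0 no effect, 100 complete control).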

[4] = system: sedge, umbrella; assay: Test B flooded paddy test; format: in vivo, Cyperus difformis; conditions: Flood, 250 g ai/ha; 0 to 100 scale where 0 is no effect and 100 is complete control
Outline: as §2

[5] = system: Heteranthera limosa; assay: Test B flooded paddy test; format: in vivo; conditions: Flood, 250 g ai/ha; 0 to 100 scale where 0 is no effect and 100 is complete control
Outline: as §2

[6] = system: barnyardgrass; assay: Test B flooded paddy test; format: in vivo, Echinochloa crus-galli; conditions: Flood, 250 g ai/ha; 0 to 100 scale where 0 is no effect and 100 is complete control
Outline: as §2

[7] = system: wheat, winter; assay: Test C postemergence; format: in vivo, Triticum aestivum; conditions: for Plant response rating (0 to 100), Wheat: 0 is no effect, 100 is complete control; for Wheat plant response rating: 31 g ai/ha; for Wheat plant response rating / Plant response rating, Wheat: scale 0 to 100 (0 no effect, 100 complete control)
Outline: (§3)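 Preemergence: seeds sown in a loam soil–sand blend and sprayed with test chemical in a non-phytotoxic solvent mixture containing surfactant. Postemergence: plants at 2 to 18 cm (1- to 4-leaf stage) in peat-based medium, treated with the same formulation. Greenhouse 13 to 15 days, then visual rating 0 (no effect) to 100 (complete control).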

[8] = system: galium; assay: Test C postemergence; format: in vivo, Galium aparine; conditions: for Plant response rating (0 to 100), Galium: 0 is no effect, 100 is complete control; for Galium plant response rating: 31 g ai/ha; for Galium plant response rating / Plant response rating, Galium: scale 0 to 100 (0 no effect, 100 complete control)
Outline: as §3

[9] = system: lambsquarters; assay: Test C postemergence; format: in vivo, Chenopodium album; conditions: for Plant response rating (0 to 100), Lambsquarters: 0 is no effect, 100 is complete control; for Lambsquarters plant response rating: 31 g ai/ha; for Lambsquarters plant response rating / Plant response rating, Lambsquarters: scale 0 to 100 (0 no effect, 100 complete control)
Outline: as §3

[10] = system: morningglory; assay: Test C postemergence; format: in vivo, Ipomoea coccinea; conditions: for Plant response rating (0 to 100), Morningglory: 0 is no effect, 100 is complete control; for Morningglory plant response rating: 31 g ai/ha; for Morningglory plant response rating / Plant response rating, Morningglory: scale 0 to 100 (0 no effect, 100 complete control)
Outline: as §3

[11] = system: yellow nutsedge; assay: Test C postemergence; format: in vivo, Cyperus esculentus; conditions: for Plant response rating (0 to 100), Nutsedge, Yellow: 0 is no effect, 100 is complete control; for Nutsedge, Yellow plant response rating: 31 g ai/ha; for Nutsedge, Yellow plant response rating / Plant response rating, Nutsedge, Yellow: scale 0 to 100 (0 no effect, 100 complete control)
Outline: as §3

[12] = system: ragweed; assay: Test C postemergence; format: in vivo, Ambrosia elatior; conditions: for Plant response rating (0 to 100), Ragweed: 0 is no effect, 100 is complete control; for Ragweed plant response rating: 31 g ai/ha; for Ragweed plant response rating / Plant response rating, Ragweed: scale 0 to 100 (0 no effect, 100 complete control)
Outline: as §3

[13] = system: velvetleaf; assay: Test C postemergence; format: in vivo, Abutilon theophrasti; conditions: for Plant response rating (0 to 100), Velvetleaf: 0 is no effect, 100 is complete control; for Velvetleaf plant response rating: 31 g ai/ha; for Velvetleaf plant response rating / Plant response rating, Velvetleaf: scale 0 to 100 (0 no effect, 100 complete control)
Outline: as §3

[14] = system: chickweed; assay: Test C postemergence; format: in vivo, Stellaria media; conditions: for Plant response rating (0 to 100), Chickweed: 0 is no effect, 100 is complete control; for Chickweed plant response rating: 31 g ai/ha; for Chickweed plant response rating / Plant response rating, Chickweed: scale 0 to 100 (0 no effect, 100 complete control)
Outline: as §3

[15] = 500 g ai/ha, 0 to 100 scale where 0 is no effect and 100 is complete control
[16] = postemergence, visual rating, 13 to 15 days
[17] = 125 g ai/ha, postemergence, visual rating
[18] = Postemergence, 62 g ai/ha, 13 to 15 days
[19] = 31 g ai/ha, 0 to 100 scale where 0 is no effect and 100 is complete control, visual, approximately 10 days
[20] = 125 g ai/ha, 0 to 100 scale where 0 is no effect and 100 is complete control

Compound: N#Cc1cn(-c2c(C#N)cccc2Oc2ncc(Cl)cn2)nn1 [Compound 273]
- Barnyardgrass plant response rating (0 to 100 scale, 0 is no effect, 100 is complete control) ([1]; 125 g ai/ha): 70
- Barnyardgrass plant response rating [1, 15]: 90
- Foxtail, Giant plant response rating (0 to 100 scale) ([2]; 125 g ai/ha): 90
- Foxtail, Giant plant response rating [2, 15]: 90
- Plant response rating, Rice [3]: 0
- Plant response rating, Sedge, Umbrella [4]: 75
- Plant response rating, Ducksalad [5]: 75
- Plant response rating, Barnyardgrass [6]: 0
- Plant response rating (0 to 100), Wheat ([7]; 16 g ai/ha, postemergence): 0
- Wheat plant response rating [7, 16]: 0
- Plant response rating, Wheat [7, 17]: 10
- Plant response rating, Wheat [7, 18]: 0
- Plant response rating (0 to 100), Galium ([8]; 16 g ai/ha, postemergence): 55
- Galium plant response rating [8, 16]: 60
- Plant response rating, Galium [8, 17]: 80
- Plant response rating, Galium [8, 18]: 60
- Plant response rating (0 to 100), Lambsquarters ([9]; 16 g ai/ha, postemergence): 25
- Lambsquarters plant response rating [9, 16]: 40
- Plant response rating, Lambsquarters [9, 17]: 80
- Plant response rating, Lambsquarters [9, 18]: 85
- Plant response rating (0 to 100), Morningglory ([10]; 16 g ai/ha, postemergence): 60
- Morningglory plant response rating [10, 16]: 65
- Plant response rating, Morningglory [10, 17]: 85
- Plant response rating, Morningglory [10, 18]: 65
- Plant response rating (0 to 100), Nutsedge, Yellow ([11]; 16 g ai/ha, postemergence): 10
- Nutsedge, Yellow plant response rating [11, 16]: 5
- Plant response rating, Nutsedge, Yellow [11, 17]: 25
- Plant response rating, Nutsedge, Yellow [11, 18]: 5
- Plant response rating (0 to 100), Ragweed ([12]; 16 g ai/ha, postemergence): 30
- Ragweed plant response rating [12, 16]: 55
- Plant response rating, Ragweed [12, 17]: 80
- Plant response rating, Ragweed [12, 18]: 55
- Plant response rating (0 to 100), Velvetleaf ([13]; 16 g ai/ha, postemergence): 5
- Velvetleaf plant response rating [13, 16]: 10
- Plant response rating, Velvetleaf [13, 17]: 30
- Plant response rating, Velvetleaf [13, 18]: 25
- Plant response rating (0 to 100), Chickweed ([14]; 16 g ai/ha, postemergence): 10
- Chickweed plant response rating [14, 16]: 30
- Plant response rating, Chickweed [14, 17]: 70
- Plant response rating, Chickweed [14, 18]: 35

Compound: FCc1cccc(Oc2ncc(F)cn2)c1-n1cc(I)cn1 [Compound 152]
- Plant response rating, Barnyardgrass [1, 19]: 20
- Plant response rating, Barnyardgrass [1, 20]: 70
- Plant response rating, Foxtail, Giant [2, 19]: 10
- Plant response rating, Foxtail, Giant [2, 20]: 100
- Plant response rating, Rice [3]: 0
- Plant response rating, Sedge, Umbrella [4]: 50
- Plant response rating, Ducksalad [5]: 60
- Plant response rating, Barnyardgrass [6]: 0
- Plant response rating (0 to 100), Wheat ([7]; 8 g ai/ha, postemergence): 0
- Plant response rating (0 to 100), Wheat ([7]; 16 g ai/ha, postemergence): 0
- Wheat plant response rating [7, 16]: 0
- Plant response rating (0 to 100), Galium ([8]; 8 g ai/ha, postemergence): 15
- Plant response rating (0 to 100), Galium ([8]; 16 g ai/ha, postemergence): 35
- Galium plant response rating [8, 16]: 55
- Plant response rating (0 to 100), Lambsquarters ([9]; 8 g ai/ha, postemergence): 60
- Plant response rating (0 to 100), Lambsquarters ([9]; 16 g ai/ha, postemergence): 40
- Lambsquarters plant response rating [9, 16]: 80
- Plant response rating (0 to 100), Morningglory ([10]; 8 g ai/ha, postemergence): 0
- Plant response rating (0 to 100), Morningglory ([10]; 16 g ai/ha, postemergence): 10
- Morningglory plant response rating [10, 16]: 40
- Plant response rating (0 to 100), Nutsedge, Yellow ([11]; 8 g ai/ha, postemergence): 0
- Plant response rating (0 to 100), Nutsedge, Yellow ([11]; 16 g ai/ha, postemergence): 0
- Nutsedge, Yellow plant response rating [11, 16]: 0
- Plant response rating (0 to 100), Ragweed ([12]; 8 g ai/ha, postemergence): 15
- Plant response rating (0 to 100), Ragweed ([12]; 16 g ai/ha, postemergence): 10
- Ragweed plant response rating [12, 16]: 40
- Plant response rating (0 to 100), Velvetleaf ([13]; 8 g ai/ha, postemergence): 5
- Plant response rating (0 to 100), Velvetleaf ([13]; 16 g ai/ha, postemergence): 20
- Velvetleaf plant response rating [13, 16]: 45
- Plant response rating (0 to 100), Chickweed ([14]; 4 g ai/ha, postemergence): 5
- Plant response rating (0 to 100), Chickweed ([14]; 8 g ai/ha, postemergence): 5
- Plant response rating (0 to 100), Chickweed ([14]; 16 g ai/ha, postemergence): 10
- Chickweed plant response rating [14, 16]: 30

Compound: FC(F)Oc1cnn(-c2c(Cl)cccc2Oc2ncc(Cl)cn2)c1 [Compound 258]
- Plant response rating, Barnyardgrass [1, 19]: 50
- Barnyardgrass plant response rating (0 to 100 scale, 0 is no effect, 100 is complete control) ([1]; 125 g ai/ha): 90
- Plant response rating, Foxtail, Giant [2, 19]: 60
- Foxtail, Giant plant response rating (0 to 100 scale) ([2]; 125 g ai/ha): 100
- Plant response rating, Rice [3]: 30
- Plant response rating, Sedge, Umbrella [4]: 95
- Plant response rating, Ducksalad [5]: 100
- Plant response rating, Barnyardgrass [6]: 60
- Plant response rating (0 to 100), Wheat ([7]; 16 g ai/ha, postemergence): 0
- Wheat plant response rating [7, 16]: 0
- Plant response rating, Wheat [7, 17]: 5
- Plant response rating, Wheat [7, 18]: 5
- Plant response rating (0 to 100), Galium ([8]; 16 g ai/ha, postemergence): 85
- Galium plant response rating [8, 16]: 90
- Plant response rating, Galium [8, 17]: 100
- Plant response rating, Galium [8, 18]: 95
- Plant response rating (0 to 100), Lambsquarters ([9]; 16 g ai/ha, postemergence): 50
- Lambsquarters plant response rating [9, 16]: 65
- Plant response rating, Lambsquarters [9, 17]: 90
- Plant response rating, Lambsquarters [9, 18]: 90
- Plant response rating (0 to 100), Morningglory ([10]; 16 g ai/ha, postemergence): 65
- Morningglory plant response rating [10, 16]: 85
- Plant response rating, Morningglory [10, 17]: 95
- Plant response rating, Morningglory [10, 18]: 85
- Plant response rating (0 to 100), Nutsedge, Yellow ([11]; 16 g ai/ha, postemergence): 0
- Nutsedge, Yellow plant response rating [11, 16]: 0
- Plant response rating, Nutsedge, Yellow [11, 17]: 5
- Plant response rating, Nutsedge, Yellow [11, 18]: 5
- Plant response rating (0 to 100), Ragweed ([12]; 16 g ai/ha, postemergence): 25
- Ragweed plant response rating [12, 16]: 50
- Plant response rating, Ragweed [12, 17]: 75
- Plant response rating, Ragweed [12, 18]: 50
- Plant response rating (0 to 100), Velvetleaf ([13]; 16 g ai/ha, postemergence): 55
- Velvetleaf plant response rating [13, 16]: 65
- Plant response rating, Velvetleaf [13, 17]: 80
- Plant response rating, Velvetleaf [13, 18]: 75
- Plant response rating (0 to 100), Chickweed ([14]; 16 g ai/ha, postemergence): 50
- Chickweed plant response rating [14, 16]: 50
- Plant response rating, Chickweed [14, 17]: 95
- Plant response rating, Chickweed [14, 18]: 90
